Counter-ions that a name gives are not always drawn.

Experimental findings from patent US10040802B2, “Thienopyrazine inhibitors of IRAK4 activity” (MERCK SHARP & DOHME CORP., priority 2015, dated 2018) are described below.

The target of the assay is GST tagged IRAK4 (Homo sapiens (Human), UniProt Q9NWZ3). The assay is described as follows: IRAK4 Kinase Assay (IMAP fluorescence polarization). Conditions: 0.5 nM GST tagged IRAK4, 100 μM ATP, 30 minutes at 25° C. It is filed as biochemical. Here is the method: The kinase activity of IRAK4 is determined by its ability to catalyze the phosphorylation of a fluorescent polypeptide substrate. The extent of phosphorylation is measured using the IMAP technology (Molecular Devices) where the phosphorylated fluorescent substrate binds to the large M(III)-based nanoparticles which reduces the rotational speed of the substrate and thus increases its fluorescent polarization (FP).
Chain of GST tagged IRAK4 (Q9NWZ3 whole entry): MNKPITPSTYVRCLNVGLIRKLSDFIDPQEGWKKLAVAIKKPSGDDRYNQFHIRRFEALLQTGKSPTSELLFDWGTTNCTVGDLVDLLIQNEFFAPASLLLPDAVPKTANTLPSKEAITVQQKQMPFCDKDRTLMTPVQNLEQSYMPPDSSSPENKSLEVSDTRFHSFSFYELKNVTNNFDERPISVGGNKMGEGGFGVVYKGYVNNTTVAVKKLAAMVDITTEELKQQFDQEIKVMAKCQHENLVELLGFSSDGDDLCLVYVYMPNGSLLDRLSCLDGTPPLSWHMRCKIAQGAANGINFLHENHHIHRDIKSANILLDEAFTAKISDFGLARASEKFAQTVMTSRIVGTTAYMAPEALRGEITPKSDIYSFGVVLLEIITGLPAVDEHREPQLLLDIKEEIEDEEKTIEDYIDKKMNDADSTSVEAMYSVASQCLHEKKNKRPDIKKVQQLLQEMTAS
20 μL reaction mixture contains 10 mM TriHCl, pH 7.2, 0.5 nM GST tagged IRAK4 (SignalChem), 100 nM fluorescent peptide substrate (RP7030, Molecular Devices), 100 μM ATP, 1 mM DDT, 1 mM MgCl2, and 0.01% Tween 20. The reaction is initiated by the addition of ATP. After incubation for 30 minutes at 25° C., 60 μL of Progressive IMAP Reagent (Molecular Devices) is added to stop the reaction. Change in RP7030's FP is determined by a FP reader (Analyst HT, LJL BioSystems).
Background: In fluorescence polarisation assays a small probe gives low polarisation when free and higher when bound to something large.
A word on the IC50: it is the concentration at which inhibition is half-maximal. A higher IC50 goes with weaker potency. Take `O=C(Nc1cscc1Cl)c1csc2ncc(N3C[C@@H]4CC[C@H]3CN4)nc12` (single isomer, unassigned) [Example 108, N-(4-chlorothiophen-3-yl)-2-[(1S,4S)- or (1R,4R)-2,5-diazabicyclo-[2.2.2]oct-2-yl]-thieno[2,3-b]-pyrazine-7-carboxamide trifluoroacetate]: the IC50 stood at 0.307 µM.

`N[C@H]1CCCC[C@H]1Nc1cnc2scc(C(=O)Nc3cscc3Cl)c2n1` [Example 110, 2-{[(1R,2S)-2-aminocyclohexyl]-amino}-N-(4-chlorothiophen-3-yl)thieno[2,3-b]-pyrazine-7-carboxamide trifluoroacetate] showed an IC50 of 0.0007 µM.

In turn, `Cn1cc(NC(=O)c2csc3ncc(N4CCNCC5(CC5)C4)nc23)c(C(F)(F)F)n1` [Example 8, 2-(5,8-diazaspiro[2.6]non-5-yl)-N-[1-methyl-3-(trifluoromethyl)-1H-pyrazol-4-yl] thieno[2,3-b] pyrazine-7-carboxamide trifluoroacetate] gave an IC50 of 0.018 µM.

Take `N#Cc1cscc1NC(=O)c1csc2ncc(N3C[C@@H]4CC[C@H]3CN4)nc12` (single isomer, unassigned) [Example 65, N-(4-cyanothiophen-3-yl)-2-[(1S,4S)- or (1R,4R)-2,5-diazabicylo[2.2.2]oct-2-yl]thieno[2,3-b] pyrazine-7-carboxamide formate]: 0.31 µM corresponded to half-maximal inhibition (IC50).

Compound `O=C(Nc1ccccc1Cl)c1csc2ncc(N3C[C@@H]4CC[C@H]3CN4)nc12` (single isomer, unassigned) [Example 99, N-(2-chlorophenyl)-2-[(1S,4S)- or (1R,4R)-2,5-diazabicyclo-[2.2.2]oct-2-yl]thieno[2,3-b]-pyrazine-7-carboxamide trifluoroacetate] registered an IC50 of 1.56 µM.

`Cn1cc(NC(=O)c2csc3ncc(N4CC5CCC(C4)N5)nc23)c(C(F)F)n1` [Example 40, 2-(3,8-diazabicyclo[3.2.1]oct-3-yl)-N-[3-(difluoromethyl)-1-methyl-1H-pyrazol-4-yl]thieno[2,3-b] pyrazine-7-carboxamide trifluoroacetate] displayed an IC50 of 0.0006 µM.

`N#Cc1sccc1NC(=O)c1csc2ncc(N3C[C@@H]4CC[C@H]3CN4)nc12` (single isomer, unassigned) [Example 69, N-(2-cyanothiophen-3-yl)-2-[(1S,4S)- or (1R,4R)-2,5-diazabicyclo[2.2.2]oct-2-yl]thieno[2,3-b] pyrazine-7-carboxamide trifluoroacetate] displayed an IC50 of 0.228 µM.

In turn, `N[C@H]1CCCC[C@H]1Nc1cnc2scc(C(=O)Nc3ccccc3Cl)c2n1` [Example 92, 2-{(1R,2S)-2-aminocyclohexyl]-amino}-N-(2-chlorophenyl)-thieno[2,3-b]-pyrazine-7-carboxamide trifluoroacetate] gave an IC50 of 0.0008 µM.

As to `N[C@@H]1[C@H](Nc2cnc3scc(C(=O)Nc4cscc4C(F)F)c3n2)CCCC1(F)F` [Example 67, 2-{[(1R,2R)-2-amino-3,3-difluorocyclohexyl]amino}-N-[4-(difluoromethyl)thiophen-3-yl] thieno[2,3-b] pyrazine-7-carboxamide trifluoroacetate], inhibition was half-maximal at 0.33 µM (IC50).

With `N#Cc1ccccc1NC(=O)c1csc2ncc(N3CCNCC3)nc12` [Example 86, N-(2-cyanophenyl)-2-piperazin-1-yl-thieno[2,3-b]-pyrazine-7-carboxamide trifluoroacetate], 0.292 µM corresponded to half-maximal inhibition (IC50).

On to `O=C(Nc1ccsc1Br)c1csc2ncc(N3C[C@@H]4CC[C@H]3CN4)nc12` (single isomer, unassigned) [Example 63, N-(2-bromothiophen-3-yl)-2-[(1S,4S)- or (1R,4R)-2,5-diazabicylo[2.2.2]oct-2-yl]thieno[2,3-b] pyrazine-7-carboxamide trifluoroacetate], for which 0.324 µM corresponded to half-maximal inhibition (IC50).
